Patent EP0110298A1, “Acridanone derivatives” (F. HOFFMANN-LA ROCHE & CO. Aktiengesellschaft, priority 1982, dated 1984)
Structures can show the parent of a compound that is named as a salt.

How the values were obtained:
[1] = Acute toxicity (DL50) after single oral administration to mice; conditions: mouse, in vivo, read-out: DL50 in mg/kg p.o.
From the text: In der nachfolgenden Tabelle werden die Resultate dargestellt, welche mit einigen repräsentativen erfindungsgemässen Substanzen erhalten worden sind. Angegeben werden für jede der darin figurierenden Verbindung die VD50 in mg/kg p.o. und, für einige dieser Verbindungen, die DL50 in mg/kg bei einmaliger oraler Verabreichung an Mäusen.

Schistosoma mansoni = assay: Schistosomicidal (vermicidal) activity in infected mice, single oral treatment, worm count reduction; type: in vivo; conditions: 456 h, Albino-Mäuse infected s.c. with cercariae of a Liberia-Stamm of Schistosoma mansoni, single peroral treatment 46 days after infection, section after 19 days, dose giving 50% reduction of worm count (Probitmethode), read-out: VD50 in mg/kg p.o.
From the text: Die schistosomizide Wirkung der erfindungsgemässen Stoffe kann tierexperimentell wie folgt nachgewiesen werden: • Albino-Mäuse mit einem Gewicht von 15-18 g werden subcutan mit 60 + 5 Cercarien eines Liberia-Stammes von Schistosoma mansoni infiziert. 46 Tage nach der Infektion werden die Tiere einmal mit den zu prüfenden Substanzen peroral behandelt. Pro Substanz und Dosierung werden 5-10 Tiere eingesetzt. Als Kontrolle dienen 10 unbehandelte Tiere. Die Sektion erfolgt nach 19 Tagen, worauf Wurmpaare und einzelne Würmer in Mesenterialvenen, Pfortader und Leber herauspräpariert und gezählt werden. Die vermicide Wirkung zeigt sich in einer reduzierten Zahl lebender Parasiten im Vergleich zu der Zahl in den Kontrolltieren.
Zur Auswertung wird die prozentuale Reduktion der Parasiten bei behandelten Tieren im Vergleich zu unbehandelten Kontrolltieren berechnet. Man bestimmt die VD 50 nach der Probitmethode. Die VD50 ist diejenige vermizide Dosis, welche eine 50-proz. Reduktion der Wurmzahl bewirkt.

SMILES | LD50 [1] [mg/kg] | ED50 (Schistosoma mansoni) [mg/kg]
CN(C)CCn1c2ccccc2c(=NNc2nccs2)c2ccccc21 [10-[2-(Dimethylamino)äthyl]-9-acridanon-(2-thiazolyl)hydrazon-dihydrochlorid] | 312 to 625 | 4.9
CN1CCN(CCn2c3ccccc3c(=NN=C3NCCS3)c3ccccc32)CC1 [10-[2-(4-Methyl-1-piperazinyl)äthyl]-9-acridanon-(2-thiazolidinyliden)hydrazon] | 156 to 312 | 4
CCN(CC)CCn1c2ccccc2c(=NN=C2NCCS2)c2ccccc21 [10-[2-(Diäthylamino)äthyl]-9-acridanon-(2-thiazolidinyliden)hydrazon] | 312 to 625 | 9.5
CN1CCN(CCn2c3ccccc3c(=NNc3nccs3)c3ccccc32)CC1 [10-12-(4-Methyl-1-piperazinyl)äthyl]-9-acridanon-(2-thiazolyl)hydrazon.2,5 HCl] | 625 to 1250 | 2.4
CN(C)CCCn1c2ccccc2c(=NNc2nccs2)c2ccccc21.Cl.Cl [10-[3-(Dimethylamino)propyl]-9-acridanon-(2-thiazolyl)hydrazon-dihydrochlorid] | 312 to 625 | 3.5
CN(C)CCn1c2ccccc2c(=NN=C2NCCS2)c2ccccc21 [10-[2-(Dimethylamino)-äthyl]-9-acridanon-(2-thiazolidinyliden)hydrazon] | 250 to 500 | 6.4
NCCn1c2ccccc2c(=NNc2nccs2)c2ccccc21 [10-(2-Aminoäthyl)-9-acridanon-2-thiazolyl-hydrazon-dihydrochlorid] | 156 to 312 | 2.6
CN(C)CCCn1c2ccccc2c(=NN=C2NCCS2)c2ccccc21 [10-[3-(Dimethylamino)propyl]-9-acridanon-(2-thiazolidinyliden)hydrazon] | 125 to 250 | 4.7
CC(=O)N1CCN(CCn2c3ccccc3c(=NN=C3NCCS3)c3ccccc32)CC1 [10-[2-(4-Acetyl-1-piperazinyl)äthyl]-9-acridanon-(2-thiazolidinyliden)-hydrazon] | 1250 to 2500 | 3.4
c1ccc2c(c1)c(=NNc1nccs1)c1ccccc1n2CCN1CCCCC1 [10-[2-(1-Piperidinyl)äthyl]-9-acridanon-(2-thiazolyl)hydrazon-l,5 HCl] | 312 to 625 | 9
CCN(CC)CCn1c2ccccc2c(=NNc2nccs2)c2ccccc21 [10-[2-(Diäthylamino)äthylJ-9-acridanon-(2-thiazolyl)hydrazon-dihydrochlorid] | > 5000 | 3.3
CC(=O)N1CCN(CCn2c3ccccc3c(=NNc3nccs3)c3ccccc32)CC1 [10-[2-(4-Acetyl-1-piperazinyl)äthyl]-9-acridanon-(2-thiazolyl)hydrazon-dihydrochlorid] | 312 to 625 | 2.6
c1ccc2c(c1)c(=NN=C1NCCS1)c1ccccc1n2CCN1CCCC1 [10-[2-(1-Pyrrolidinyl)äthyl]-9-acridanon-(2-thiazolidinyliden)hydrazon] | 156 to 312 | 6.2
